Experimental data reported in patent publication US11939302B2, “Compounds for the treatment of Alzheimer's disease” (The Governors of the University of Alberta, priority 2020, dated 2024).
No end group written: not given here.

Legend:
[1] = target: T1, amylin receptor subtype 3 (AMY3) (Homo sapiens, UniProt O60896+P30988); experiment: Kinetic intracellular Ca2+ changes (Fluo-8L-AM) in AMY3-HEK293 cells; format: cell-based; settings: human amylin 0.5 μM; compound 0.01-10 μM range; FIG. 3
T1 construct: expressed in transfected cells
T1 sequence (P30988 25-474): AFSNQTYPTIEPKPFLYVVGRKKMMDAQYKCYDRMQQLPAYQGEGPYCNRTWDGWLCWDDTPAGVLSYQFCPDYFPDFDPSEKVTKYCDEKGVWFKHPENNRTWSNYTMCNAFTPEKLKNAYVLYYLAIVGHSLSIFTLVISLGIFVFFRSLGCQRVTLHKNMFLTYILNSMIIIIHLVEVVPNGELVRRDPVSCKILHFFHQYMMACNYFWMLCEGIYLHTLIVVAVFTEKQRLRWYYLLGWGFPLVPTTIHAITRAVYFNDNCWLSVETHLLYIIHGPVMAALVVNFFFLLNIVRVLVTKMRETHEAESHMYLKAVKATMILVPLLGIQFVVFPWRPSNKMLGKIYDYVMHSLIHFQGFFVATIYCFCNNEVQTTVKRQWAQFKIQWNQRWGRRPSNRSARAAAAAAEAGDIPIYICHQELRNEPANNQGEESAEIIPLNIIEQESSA
T1 sequence (O60896 24-148 partner): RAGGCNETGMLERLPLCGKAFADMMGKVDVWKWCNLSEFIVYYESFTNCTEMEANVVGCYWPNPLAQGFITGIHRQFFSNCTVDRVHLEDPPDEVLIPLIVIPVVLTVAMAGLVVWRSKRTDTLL
Procedure: Kinetic Intracellular Ca^2+ Changes. Dynamic changes of the free cytosolic Ca2+ concentration were monitored with microplate reader. For monitor amylin induced intracellular Ca^2+, AMY3-HEK293 cells were plated on 96 well cell culture plates and incubated at 37° C. for 12-36 h with DMEM, 10% FBS, and Zeocin medium. For Ca^2+ changes, the AMY3-HEK293 cells were washed twice with assay solution which ion content similar to extracellular brain fluid thus containing the following: 130 mM NaCl, 4 mM KCl, 1 mM MgCl2, 2 mM CaCl2), 10 mM HEPES, and 10 mM glucose (pH 7.35). Then incubated with the membrane-permeant fluorescent Ca^2+-sensitive dye Fluo-8L-AM (AAT Bioquest, Inc., Sunnyvale, CA), with 5 μM of the agent for 40 min at room temperature (20-23° C.) in assay solution. The test compounds were added in various concentrations of 0.01, 0.1, 1, and 10 μM for 10 min and kinetic measured the fluorescent intensity with Varioskan-LUX microplate reader (Thermo Fisher Scientific, Waltham, MA). Human amylin were dissolved in sterile bidistilled water at 1 mM stock solution and incubated at room temperature for 10 min before dilution with assay solution for use at a final concentration of 0.5 μM. Fluorescent intensity was measured at excitation/emission wavelength of 488/514 nm, excitation bandwidth 12 nm, kinetic interval 1 min, and measure time at 100 ms. […]

[2] = system: N2a neuronal cells; experiment: MTT cell death assay, amyloid beta toxicity; format: cell-based, mouse; settings: N2a cell line; Aβ1-42 10 μM, soluble oligomeric; 24-48 h; FIG. 4
Procedure: MTT Cell Death Assay. The N2a (mouse) and SK-N-SH (human) neuronal cells were seeded to 5000 cells/well in a 96-well plate in DMEM medium, 10% FBS and incubated overnight. Cells in culture medium were incubated either with or without the assay compounds and Aβ1-42, 10 μM for 24-48 h. At the end of treatment, 20 μL of 5 mg/mL 3-(4,5-dimethylthiazol-2-yl)-2,5-diphenyltetrazolium bromide (MTT, Sigma) was added to each well and incubated at 37° C. for 3 h. Medium was removed, 100 μL of MTT solvent (isopropanol with 4 mM HCl) was added to each well, and the plates were incubated for 30 min at room temperature on a rotating shaker. Plates were analyzed on a microplate reader at a 562 nm wavelength.

[3] = target: T1, amylin receptor subtype 3 (AMY3); experiment: cAMP ELISA in AMY3-HEK cells, reduction of human amylin induced cAMP; format: cell-based; settings: FIG. 2; for Mode of action indicated by cAMP assays in amylin receptor subtype 3 expressing cells: AMY3 expressing cells; for Human amylin generation of cAMP in the presence of compound: human amylin 0.1 μM, compound 10 μM, AMY3-HEK cells
Procedure: Compounds described herein were screened using a cAMP (cyclic adenosine monophosphate) assay in amylin receptor subtype 3 expressing cells (See FIG. 1).
Cell Cultures. Amylin receptor subtypes (AMY3-HEK cells) stably expressed in human embryonic kidney (HEK293) cell-line were generated and characterized as described in a previous published article (Fu et al., J. Biol. Chem. 2012). The AMY3-HEK cells were grown in a 5% CO2 humidified incubator at 37° C. with DMEM, 10% FBS, and 100 μg/mL Zeocin medium.
ELISA (enzyme-linked immunosorbent assay). Cellular cAMP levels were measured using a parameter cyclic AMP assay kit (R&D Systems) according to the manufacturer's instructions. Briefly, AMY3-HEK cells were plated on 24-well plates overnight. These cells were then incubated with or without the assay compounds and hAmylin for 5 min. The cells were lysed with lysis buffer provided in the assay kit. Standard curves were plotted using the cAMP standards provided in the ELISA kits. All samples were analyzed in duplicate. The plate was measured at 450 nm. Data was plotted, and non-linear regression was fitted with four parameters using Prism software (GraphPad Software, La Jolla, CA).
Compounds were assayed based on potency of reduction at 10 μM of 0.1 μM human Amylin (hAmylin) induced cAMP increases.

[4] = system: hippocampal long term potentiation (LTP); experiment: Hippocampal long term potentiation (LTP) electrophysiology in brain slices; design: species or system mice; settings: for LTP levels in hippocampal slices from transgenic AD mice (TgCRND8), chronically depressed LTP: compared with age matched wild type control (WT_Cont); for Effect on LTP from wild type control (WT_Cont) mice: WT_Cont slices; for Amyloid beta (Aβ)-induced depression of LTP / Human amylin-induced depression of LTP: compound 1 μM, brain hippocampal slices
Description: Hippocampal long term potentiation (LTP) electrophysiology experiments: an in vitro cellular surrogate for memory. Brains were quickly removed from mice following decapitation, placed in a cold artificial cerebral spinal fluid (aCSF) on a vibratome chamber and transverse sections cut through the hippocampus. The aCSF contained (in mM) 124 NaCl, 3 KCl, 2.4 CaCl2), 2 MgCl2, 1.25 NaH2PO4, 26 NaHCO3 and 10 D-glucose, and was equilibrated with 95% 02 and 5% CO2. Hippocampal slices ([…]) were maintained in aCSF-filled holding chamber at room temperature for at least 1 hour and individually transferred to the submerged glass bottom recording chamber, which was constantly perfused with aCSF (2 mL/min) at 30° C. Field excitatory postsynaptic potential (fEPSP) was recorded with a metallic (Pt/Ir) electrode (FHC, Bowdoin, ME) from the stratum radiatum layer of Cornu ammonis 1 region of the hippocampus (CA1) area, and the Schaffer collateral afferents were stimulated with 100-μs test pulses via a bipolar cluster electrode (FHC) (Kimura et al., 2012, Kimura et al. 2016). To evaluate basal synaptic transmission, we applied different stimulation strengths (75 μA to 300 μA in steps of 25 μA) and plotted the amplitudes of presynaptic fiber volleys versus the corresponding fEPSP slopes to compare the slope of input/output (I/O) curves of fEPSP. For long-term potentiation (LTP) experiments, the stimulus strength was set to elicit 40-50% of the maximum fEPSP amplitude and test pulses were delivered to Schaffer collaterals once every 30 seconds. LTP was induced by 3-theta-burst stimulation (3-TBS) protocol (each burst consisted of 4 pulses at 100 Hz with a 200-ms inter-burst interval). Before 3-TBS or drug application, the responses were monitored for at least 10 minutes to ensure a stable baseline of fEPSP. […] Results were from various treatment groups were plotted as histograms with means±standard error (SE). Statistical analysis was performed using one-way ANOVA followed by post-hoc Tukey's honestly significant difference (HSD) test (for multiple comparisons) or Student's t test (for pair-wise comparisons). All drugs and chemicals were applied directly to the slice via bath perfusion, which allowed for a complete exchange of the perfusate in less than a minute and a half.

[5] = system: Aβ toxicity; settings: Jhamandas et al., 2004; 2011; 2012; cited from earlier work
[6] = system: long-term potentiation; settings: hippocampus of TgCRND8 mice; Kimura et al., 2012; 2016; cited from earlier work

Row | Elevations in intracellular calcium evoked by human amylin [1] | Mode of action indicated by cAMP assays in amylin receptor subtype 3 expressing cells [3] | Human amylin generation of cAMP in the presence of compound [3] | Molecule | Cytoprotection against amyloid beta (Abeta) toxicity, cell viability by MTT [2] | LTP levels in hippocampal slices from transgenic AD mice (TgCRND8), chronically depressed LTP [4] | Effect on LTP from wild type control (WT_Cont) mice [4] | Amyloid beta (Aβ)-induced depression of LTP [4] | Human amylin-induced depression of LTP [4] | Neuroprotection against Aβ toxicity [5] | Aβ- or human amylin-induced depression of long-term potentiation [6]
1 | attenuated | amylin receptor antagonists | attenuated | O=c1[nH]c2ccccc2n(CCCO)c1=O [Compound 1, 1-(3-hydroxypropyl)-1,4-dihydroquinoxaline-2,3-dione] | cytoprotective | increased LTP levels | no effects | blocked | blocked |  | 
2 | attenuated | amylin receptor antagonists | attenuated | O=C1CN(C(=O)CCO)c2ccccc2N1 [Compound 10, 4-(3-hydroxypropanoyl)-3,4-dihydroquinoxalin-2(1H)-one] | cytoprotective | increased LTP levels to levels observed in WT_Cont mice | no effects | blocked | blocked |  | 
3 |  |  |  | AC253: peptide antagonist of the amylin receptor, 24 amino acids, SEQ ID NO: 1 (Ac-LGRLSQELHRLQTYPRTNTGSNTY) |  |  |  |  |  | neuroprotective | reverse impairment
